{"source": "patent US5972894A", "about": "“Peptides having potassium channel opener activity” (Cytran, Inc., priority 1997, dated 1999)", "key": {"Isolated Rat Heart": {"system": "Isolated Rat Heart", "test": "Inotropic function of normal isolated rat heart, Langendorff perfusion", "description": "Rat heart specimens were obtained surgically from white random-bred male rats weighing approximately 250 g. The hearts were established in culture using retrograde heart perfusion according to the Langendorff method performed with a standard oxygenated (95% O2 and 5% CO2) Krebs-Henseleit solution through a glass aorta cannula. The retroperfusion pressure forces the aortic valves shut. In this way, the oxygenated solution passed only through the coronary vasculature of the heart such that both ventricles remain effectively empty. Perfusion conditions: An average constant perfusate flow rate of 15 to 25 ml/min was maintained with a constant perfusate pressure of 80 cm H2 O. Pressure Measurements: A latex balloon catheter connected with a pressure transducer ([…], Sweden) was inserted into the left ventricle of the heart to measure parameters of the inotropic function of the heart. The intraventricle pressure variation curve for the left ventricle was recorded with a polygraph. Experimental Protocol: GE and VT served as the test substances. After a 30-minute adaptation of the heart to the organ culture perfusion conditions, a set of basal (control) measurements was taken, as described in (i) through (v) below. […] See GOODMAN […] THE PHARMACOLOGICAL BASIS OF THERAPEUTICS 160 (Goodman et al., eds., 7th ed. 1985), incorporated herein by reference in its entirety for all purposes. Each dose of each respective test or reference substance was tested on four different rat hearts. The inotropic functions of each of the four rat hearts were evaluated by measuring: (i) the systolic pressure in the left ventricle ([…] diastolic pressure in the left ventricle ([…] evolving pressure (Pev. =[…]); (iv) the maximal rate of increase of left ventricle pressure (+dp/dtmax mm Hg/sec); and (v) the maximal rate of decrease of left ventricle pressure (-dp/dtmax mm Hg/sec). In addition, the heart rate (HR) of each heart was determined from the pressure variation recordings made of the left ventricle pressure."}, "Rat Portal Vein": {"system": "Rat Portal Vein", "test": "KCl-induced tonic contraction of rat portal vein smooth muscle specimens", "type": "cell-based", "experimental": "Spontaneous contraction curve values for each SMS were recorded by making repetitive measurements of the spontaneous contractile activity of each sample at 2, 5, 10, and 15 minutes after the addition of the test or reference substance to each SMS/organ bath. Next, 0.5 ml of a solution of 600 mM solution of KCl in […] in the organ bath until a final concentration of 60 mM KCl was achieved. The contractile activity of each SMS was then measured for 5 minutes."}, "rats": {"system": "rats", "test": "CPK activity in blood serum 1 hour after coronary occlusion", "type": "in vivo", "conditions": "for CPK Activity in blood serum: 1 hour after coronary occlusion", "experimental": "White random-bred male rats weighing approximately 200 g were anesthetized using a light ether administration and then immobilized and artificially ventilated. […] Immediately after ligation, a test substance, positive, control substance, or negative control substance (described below) was administered to a rat through a catheterized femoral vein. Each dose of each test substance or positive or negative control substance was administered to an experimental or control group of 9 test rats. In this study, GE and VT served as test substances, propranolol served as the positive control substance, and physiological saline served as the negative control substance. Each test rat in an experimental group was given a dose of either 0.1, 1.0, or 10.0 milligram GE per kilogram of body weight of the subject animal (mg/kg) or 0.1, 1.0, or 10.0 milligram VT per kilogram of body weight of the animal. Each animal of the positive control group received an intravenous dose of 0.5 mg of β-adrenergic blocking agent, propranolol (Obzidan, Germed, Germany) per kilogram of body weight. Propranolol is commonly used to manage cardiac arrhythmia and there is some evidence that the agent may reduce the extent of ischemic damage to the heart. […] Each animal of the negative control group received physiological saline.\nOne hour after initiation of the coronary artery occlusion, each test animal was sacrificed, its blood was collected, and the CPK activity in its blood serum was measured. CPK activity was determined by using a standard biochemical method, such as that commercially available from the Lachema Company (Czechia) in its test kit, and by following the manufacturer's process instructions included in the package insert.\nAs a supplementary control for the possible trauma caused by the surgical procedure, a group of 9 sham-operated rats was included in the study. These test animals were subjected to chest dissection, but not to coronary artery occlusion. These \"sham-operated\" animals were not treated with any test or control substances and were euthanized 1 hour after surgery. Their blood was then collected for determination of CPK activity."}}, "note": "Residues, ends and D or L forms follow the SMILES beside them.", "data": [{"compound": "NCC(=O)N[C@@H](CCC(=O)O)C(=O)O", "note": "[GE, L-Glycyl-L-Glutamic acid] (H-Gly-Glu-OH)", "values": [{"measurement": "effect on inotropic function and heart rate of normal heart", "setting": "Isolated Rat Heart; 10, 100, 1000 μg", "result": "neither GE nor VT had a significant effect"}, {"measurement": "+dp/dtmax % of Basal Level", "setting": "Isolated Rat Heart; dose 10 mg (mg = microgram)", "result": 102, "unit": "%"}, {"measurement": "+dp/dtmax Subst. Level", "setting": "Isolated Rat Heart; dose 10 mg (mg = microgram)", "result": 1750, "unit": "mm Hg/sec"}, {"measurement": "-dp/dtmax % of Basal Level", "setting": "Isolated Rat Heart; dose 10 mg (mg = microgram)", "result": 94, "unit": "%"}, {"measurement": "-dp/dtmax Subst. Level", "setting": "Isolated Rat Heart; dose 10 mg (mg = microgram)", "result": 985, "unit": "mm Hg/sec"}, {"measurement": "HR % of Basal Level", "setting": "Isolated Rat Heart; dose 10 mg (mg = microgram)", "result": 99, "unit": "%"}, {"measurement": "HR abs, Subst. Level", "setting": "Isolated Rat Heart; dose 10 mg (mg = microgram)", "result": 202, "unit": "hb/min"}, {"measurement": "Pdiast % of Basal Level", "setting": "Isolated Rat Heart; dose 10 mg (mg = microgram)", "result": 95, "unit": "%"}, {"measurement": "Pdiast abs, Subst. Level", "setting": "Isolated Rat Heart; dose 10 mg (mg = microgram)", "result": 9, "unit": "mm Hg"}, {"measurement": "Pev % of Basal Level", "setting": "Isolated Rat Heart; dose 10 mg (mg = microgram)", "result": 102, "unit": "%"}, {"measurement": "Pev Subst. Level", "setting": "Isolated Rat Heart; dose 10 mg (mg = microgram)", "result": 94, "unit": "mm Hg"}, {"measurement": "Psyst % of Basal Level", "setting": "Isolated Rat Heart; dose 10 mg (mg = microgram)", "result": 102, "unit": "%"}, {"measurement": "Psyst abs, Subst. Level", "setting": "Isolated Rat Heart; dose 10 mg (mg = microgram)", "result": 104, "unit": "mm Hg"}, {"measurement": "+dp/dtmax % of Basal Level", "setting": "Isolated Rat Heart; dose 100 mg (mg = microgram)", "result": 100, "unit": "%"}, {"measurement": "+dp/dtmax Subst. Level", "setting": "Isolated Rat Heart; dose 100 mg (mg = microgram)", "result": 1723, "unit": "mm Hg/sec"}, {"measurement": "-dp/dtmax % of Basal Level", "setting": "Isolated Rat Heart; dose 100 mg (mg = microgram)", "result": 99, "unit": "%"}, {"measurement": "-dp/dtmax Subst. Level", "setting": "Isolated Rat Heart; dose 100 mg (mg = microgram)", "result": 1055, "unit": "mm Hg/sec"}, {"measurement": "HR % of Basal Level", "setting": "Isolated Rat Heart; dose 100 mg (mg = microgram)", "result": 100, "unit": "%"}, {"measurement": "HR abs, Subst. Level", "setting": "Isolated Rat Heart; dose 100 mg (mg = microgram)", "result": 203, "unit": "hb/min"}, {"measurement": "Pdiast % of Basal Level", "setting": "Isolated Rat Heart; dose 100 mg (mg = microgram)", "result": 100, "unit": "%"}, {"measurement": "Pdiast abs, Subst. Level", "setting": "Isolated Rat Heart; dose 100 mg (mg = microgram)", "result": 11, "unit": "mm Hg"}, {"measurement": "Pev % of Basal Level", "setting": "Isolated Rat Heart; dose 100 mg (mg = microgram)", "result": 99, "unit": "%"}, {"measurement": "Pev Subst. Level", "setting": "Isolated Rat Heart; dose 100 mg (mg = microgram)", "result": 88, "unit": "mm Hg"}, {"measurement": "Psyst % of Basal Level", "setting": "Isolated Rat Heart; dose 100 mg (mg = microgram)", "result": 99, "unit": "%"}, {"measurement": "Psyst abs, Subst. Level", "setting": "Isolated Rat Heart; dose 100 mg (mg = microgram)", "result": 99, "unit": "mm Hg"}, {"measurement": "+dp/dtmax % of Basal Level", "setting": "Isolated Rat Heart; dose 1000 mg (mg = microgram)", "result": 94, "unit": "%"}, {"measurement": "+dp/dtmax Subst. Level", "setting": "Isolated Rat Heart; dose 1000 mg (mg = microgram)", "result": 1618, "unit": "mm Hg/sec"}, {"measurement": "-dp/dtmax % of Basal Level", "setting": "Isolated Rat Heart; dose 1000 mg (mg = microgram)", "result": 96, "unit": "%"}, {"measurement": "-dp/dtmax Subst. Level", "setting": "Isolated Rat Heart; dose 1000 mg (mg = microgram)", "result": 980, "unit": "mm Hg/sec"}, {"measurement": "HR % of Basal Level", "setting": "Isolated Rat Heart; dose 1000 mg (mg = microgram)", "result": 102, "unit": "%"}, {"measurement": "HR abs, Subst. Level", "setting": "Isolated Rat Heart; dose 1000 mg (mg = microgram)", "result": 198, "unit": "hb/min"}, {"measurement": "Pdiast % of Basal Level", "setting": "Isolated Rat Heart; dose 1000 mg (mg = microgram)", "result": 100, "unit": "%"}, {"measurement": "Pdiast abs, Subst. Level", "setting": "Isolated Rat Heart; dose 1000 mg (mg = microgram)", "result": 10, "unit": "mm Hg"}, {"measurement": "Pev % of Basal Level", "setting": "Isolated Rat Heart; dose 1000 mg (mg = microgram)", "result": 91, "unit": "%"}, {"measurement": "Pev Subst. Level", "setting": "Isolated Rat Heart; dose 1000 mg (mg = microgram)", "result": 85, "unit": "mm Hg"}, {"measurement": "Psyst % of Basal Level", "setting": "Isolated Rat Heart; dose 1000 mg (mg = microgram)", "result": 92, "unit": "%"}, {"measurement": "Psyst abs, Subst. Level", "setting": "Isolated Rat Heart; dose 1000 mg (mg = microgram)", "result": 94, "unit": "mm Hg"}, {"measurement": "Area Under Curve of KCl-Induced Contraction (% of control)", "setting": "Rat Portal Vein; 10^-6 g/ml, 60 mM KCl", "result": 90.26, "unit": "%"}, {"measurement": "effect on tonic contraction induced by KCl", "setting": "Rat Portal Vein; venous smooth muscle specimens", "result": "neither GE nor VT effected the character of the tonic contraction"}, {"measurement": "CPK Activity in blood serum", "setting": "rats; 0.1 mg/kg i.v.", "result": "0.062 (±0.013) mcCat/L"}, {"measurement": "CPK Activity in blood serum", "setting": "rats; 1.0 mg/kg i.v.", "result": "0.056 (±0.014) mcCat/L"}, {"measurement": "CPK Activity in blood serum", "setting": "rats; 10.0 mg/kg i.v.", "result": "0.110 (±0.024) mcCat/L"}, {"measurement": "extent of induced myocardial ischemic lesions (CPK in serum vs negative control)", "setting": "rats; 0.1, 1.0, and 10.0 milligram", "result": "diminish the extent of induced myocardial ischemic lesions"}]}]}
